From US8101170B2, “Probiotic health or fitness promoting human or animal foodstuff and/or drinking water additive and use thereof” (Erber Aktiengesellschaft, priority 2005, dated 2012) come the findings set out here.

Holding throughout (assay type): cell-based
One experiment relates to Clostridium perfringens.
The next experiment deals with Salmonella choleraesuis. The experiment is described as follows: Agar plate assay, inhibition of pathogenic germs by CE test germs.
The next experiment concerns Campylobacter jejuni. The description is as above.
The next experiment concerns E. coli. Described as above.

Values joined by “and” are separate entries in the source; they are usually repeats but may differ in a detail not shown here. Equal entries are not always repeated. Where two headings read alike, the source gives them in different places.

Turning to Bifidobacterium animalis [DSM 20104], the “inhibition zone to test germ ratio, Clostridium perfringens” value in the experiment on Clostridium perfringens stood at 1.42. Also, in the experiment on Salmonella choleraesuis (MRS agar), the “inhibition zone to test germ ratio, Salmonella choleraesuis” value is 0.65. Further, in the experiment with Campylobacter jejuni (MRS agar), the “inhibition zone to test germ ratio, Campylobacter jejuni” value came to 0.31.
For Enterococcus faecium [DSM 16211] the same measures were 1.43, 1.37 and 1.28.
As for Enterococcus faecium [NCIMB 10415], the “inhibition zone to test germ ratio, Clostridium perfringens” value with Clostridium perfringens is listed as 1.31. For the same substance, the “inhibition zone to test germ ratio, Salmonella choleraesuis” value with Salmonella choleraesuis turned out to be 1.20. Also, in the experiment on E. coli, the “inhibition zone to test germ ratio, E. coli” value is 1.37 and 1.35. Also, the “inhibition zone to test germ ratio, Campylobacter jejuni” value with Campylobacter jejuni is listed as 1.22.
Take Lactobacillus reuteri [DSM 16350]: in the experiment on Clostridium perfringens, the “inhibition zone to test germ ratio, Clostridium perfringens” value is reported as 2.12. Besides, the “inhibition zone to test germ ratio, Salmonella choleraesuis” value in the experiment on Salmonella choleraesuis (MRS agar) worked out at 1.60. Moreover, in the experiment on Campylobacter jejuni (MRS agar), the “inhibition zone to test germ ratio, Campylobacter jejuni” value turned out to be 1.36.
In the case of Lactobacillus reuteri [DSM 20016], in the experiment on Clostridium perfringens, the “inhibition zone to test germ ratio, Clostridium perfringens” value was determined as 1.54. Besides, the “inhibition zone to test germ ratio, Salmonella choleraesuis” value in the experiment with Salmonella choleraesuis (MRS agar) stood at 1.20. Moreover, the “inhibition zone to test germ ratio, Campylobacter jejuni” value in the experiment with Campylobacter jejuni (MRS agar) is listed as 1.35.
Turning to Lactobacillus salivarius [DSM 20555], the “inhibition zone to test germ ratio, Clostridium perfringens” value in the experiment with Clostridium perfringens is 1.63. Also, in the experiment with Salmonella choleraesuis (MRS agar), the “inhibition zone to test germ ratio, Salmonella choleraesuis” value is on record as 1.09. The “inhibition zone to test germ ratio, Campylobacter jejuni” value in the experiment on Campylobacter jejuni (MRS agar) is reported as 1.41.
For “Lactobacillus salivarius ssp. salivarius [DSM 16351]”, in the experiment with Clostridium perfringens, the “inhibition zone to test germ ratio, Clostridium perfringens” value is 2.05. Moreover, the “inhibition zone to test germ ratio, Salmonella choleraesuis” value with Salmonella choleraesuis (MRS agar) is 1.46. Also, the “inhibition zone to test germ ratio, Campylobacter jejuni” value in the experiment on Campylobacter jejuni (MRS agar) is reported as 1.50.
As for Pediococcus acidilactici [DSM 20284], the “inhibition zone to test germ ratio, Clostridium perfringens” value in the experiment with Clostridium perfringens was 1.35. Besides, the “inhibition zone to test germ ratio, Salmonella choleraesuis” value in the experiment with Salmonella choleraesuis (MRS agar) amounted to 1.10. Further, the “inhibition zone to test germ ratio, Campylobacter jejuni” value in the experiment with Campylobacter jejuni (MRS agar) turned out to be 1.32.
